In patent publication US20250145665A1, “MACROCYCLIC PEPTIDES USEFUL AS MODULATORS OF TNF ALPHA” (Bristol-Myers Squibb Company, priority 2023, published 2025) one finds IC50 data, which are given here for six compounds.

Structures are written as SMILES. Starred links: 1 amine or outer side, 2 acyl side, 3 side chain; linkers in the order of their positions; H or OH if unused. Positions of bridges follow the written chain, without caps; N, C: chain ends. Non-standard residues stand in square brackets, D forms with d. Residues, ends and D or L forms follow the SMILES beside them. *: point of attachment. Bip(4'-NH) = O=C([C@H](Cc1ccc(-c2ccc(N[*:3])cc2)cc1)N[*:1])[*:2]; Bip(4'-COOH) = N[C@@H](Cc1ccc(-c2ccc(C(=O)O)cc2)cc1)C(=O)O; Bip(4'-NHAc) = CC(=O)Nc1ccc(-c2ccc(C[C@H](N)C(=O)O)cc2)cc1; X42 = O=C(O)Cn1cc(C[C@H](NC(=O)c2ccccc2)C(=O)*)c2ccccc21; Ala(morpholin-4-yl) = N[C@@H](CN1CCOCC1)C(=O)O; Phe(3-CONH2) = NC(=O)c1cccc(C[C@H](N)C(=O)O)c1; Bip = N[C@@H](Cc1ccc(-c2ccccc2)cc1)C(=O)O; Phe(4-NH2) = Nc1ccc(C[C@H](N)C(=O)O)cc1; 2Pal = N[C@@H](Cc1ccccn1)C(=O)O; Tle = CC(C)(C)[C@H](N)C(=O)O; Sar = CNCC(=O)O

The target in one assay is TNFα (Homo sapiens, UniProt P01375). Kind of assay: TNF-Induced HEK-Blue Assay. Format: cell-based.
Chain of TNFα (P01375 77-233 limits assumed): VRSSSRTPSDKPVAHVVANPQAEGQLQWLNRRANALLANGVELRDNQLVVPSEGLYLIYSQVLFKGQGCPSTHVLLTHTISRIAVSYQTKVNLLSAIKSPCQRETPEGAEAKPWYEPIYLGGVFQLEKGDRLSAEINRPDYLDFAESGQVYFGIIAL
Details: not given
`CC[C@H](C)[C@@H]1NC(=O)[C@@H]2CCCN2C(=O)[C@H]([C@@H](C)CC)NC(=O)[C@@H](CCCNC(=N)N)NC(=O)[C@H](CC(=O)O)NC(=O)[C@H](Cc2ccccn2)NC(=O)CN(C)C(=O)[C@H](Cc2ccc(-c3ccc(NC(=O)[C@H](Cc4cn(CC(=O)O)c5ccccc45)NC(=O)c4ccccc4)cc3)cc2)NC(=O)[C@H](Cc2ccc(-c3ccccc3)cc2)NC(=O)[C@H](C(C)(C)C)NC(=O)CSC[C@@H](C(=O)NCC(N)=O)NC(=O)[C@H](CC(C)C)NC(=O)[C@H](Cc2cccc(C(N)=O)c2)NC1=O` [Example 380] ({CH2CO}-[Tle][Bip][Bip(4'-NH)](X42)[Sar][2Pal]D[dR]IPI[Phe(3-CONH2)]LCG-NH2; thioether N-13) had an IC50 of 50 to 200 nM.

Still in this assay, the particulars now being: HEK-Blue-CD40L cells, NF-kB-driven secreted alkaline phosphatase reporter; TNFα 0.5 ng/ml; 18 h; read-out: TNF induced HEK-Blue assay IC50 value.
For `CC(=O)Nc1ccc(-c2ccc(C[C@@H]3NC(=O)[C@H](Cc4ccc(-c5ccc(C(=O)O)cc5)cc4)NC(=O)[C@H](C(C)(C)C)NC(=O)CSC[C@@H](C(=O)NCC(N)=O)NC(=O)[C@H](CC(C)C)NC(=O)[C@H](Cc4ccc(O)cc4)NC(=O)[C@H](C(C)C)NC(=O)[C@@H]4CCCN4C(=O)[C@H](C(C)C)NC(=O)[C@@H](CCCNC(=N)N)NC(=O)[C@H](CC(=O)O)NC(=O)[C@@H]4CCCN4C(=O)CN(C)C3=O)cc2)cc1` [Example 265] ({CH2CO}-[Tle][Bip(4'-COOH)][Bip(4'-NHAc)][Sar]PD[dR]VPVYLCG-NH2; thioether N-13), the IC50 was 50 to 200 nM. For the compound `CC(=O)Nc1ccc(-c2ccc(C[C@@H]3NC(=O)[C@H](Cc4ccc(-c5ccccc5)cc4)NC(=O)[C@H](C(C)(C)C)NC(=O)CSC[C@@H](C(=O)NCC(N)=O)NC(=O)[C@H](CC(C)C)NC(=O)[C@H](Cc4ccccc4)NC(=O)[C@H](C(C)C)NC(=O)[C@@H]4CCCN4C(=O)[C@H](C(C)C)NC(=O)[C@@H](CCCNC(=N)N)NC(=O)[C@H](CC(=O)O)NC(=O)[C@H](Cc4ccc(O)cc4)NC(=O)CN(C)C3=O)cc2)cc1` [Example 263] ({CH2CO}-[Tle][Bip][Bip(4'-NHAc)][Sar]YD[dR]VPVFLCG-NH2; thioether N-13), the IC50 is 50 to 200 nM.

Turning to `CC(C)C[C@@H]1NC(=O)[C@H](Cc2ccccc2)NC(=O)[C@H](C(C)C)NC(=O)[C@@H]2CCCN2C(=O)[C@H](C(C)C)NC(=O)[C@@H](CCCNC(=N)N)NC(=O)[C@H](CC(=O)O)NC(=O)[C@H](Cc2ccccc2)NC(=O)CN(C)C(=O)[C@H](Cc2ccc(-c3ccccc3)cc2)NC(=O)[C@H](Cc2ccc(-c3ccc(C(=O)O)cc3)cc2)NC(=O)[C@H](CN2CCOCC2)NC(=O)CSC[C@@H](C(=O)NCC(N)=O)NC1=O` [Example 216] ({CH2CO}-[Ala(morpholin-4-yl)][Bip(4'-COOH)][Bip][Sar]FD[dR]VPVFLCG-NH2; thioether N-13), the IC50 was in the range of 200 to 2000 nM. Still for that read-out and setting: next, `CC(C)C[C@@H]1NC(=O)[C@H](Cc2ccc(O)cc2)NC(=O)[C@H](C(C)C)NC(=O)[C@@H]2CCCN2C(=O)[C@H](Cc2ccc(N)cc2)NC(=O)[C@H](CCCNC(=N)N)NC(=O)[C@H](CC(=O)O)NC(=O)[C@H](Cc2ccc(O)cc2)NC(=O)CN(C)C(=O)[C@H](Cc2ccc(-c3ccccc3)cc2)NC(=O)[C@H](Cc2ccc(-c3ccccc3)cc2)NC(=O)[C@H](CN2CCOCC2)NC(=O)CSC[C@@H](C(=O)NCC(N)=O)NC1=O` [Example 112] ({CH2CO}-[Ala(morpholin-4-yl)][Bip][Bip][Sar]YDR[Phe(4-NH2)]PVYLCG-NH2; thioether N-13): 200 to 2000 nM; `CC(C)C[C@@H]1NC(=O)[C@H](Cc2ccc(O)cc2)NC(=O)[C@H](C(C)C)NC(=O)[C@@H]2CCCN2C(=O)[C@H](CC(N)=O)NC(=O)[C@H](CCCNC(=N)N)NC(=O)[C@H](CC(=O)O)NC(=O)[C@H](Cc2ccc(O)cc2)NC(=O)CN(C)C(=O)[C@H](Cc2ccc(-c3ccccc3)cc2)NC(=O)[C@H](Cc2ccc(-c3ccccc3)cc2)NC(=O)[C@H](CN2CCOCC2)NC(=O)CSC[C@@H](C(=O)NCC(N)=O)NC1=O` [Example 83] ({CH2CO}-[Ala(morpholin-4-yl)][Bip][Bip][Sar]YDRNPVYLCG-NH2; thioether N-13): 50 to 200 nM.

Broadly, the IC50 is the point on the concentration scale where inhibition reaches its midpoint.
